From patent publication US11904020B2, “Bicyclic peptide ligands specific for TREM2” (Bicycle Tx Limited, priority 2021, dated 2024) come the findings set out here.

*1 amine or outer side, *2 acyl side, *3 side chain or, on linkers, in order; H or OH if unused. Where a SMILES comes first, the peptide text is derived from it. Bridges are numbered along the chain shown (N, C = ends). [ ]: non-standard residue; d: D form. TATA = O=C(CC[*:1])N1CN(C(=O)CC[*:2])CN(C(=O)CC[*:3])C1; Bip = N[C@@H](Cc1ccc(-c2ccccc2)cc1)C(=O)O; 1Nal = N[C@@H](Cc1cccc2ccccc12)C(=O)O; Phe(2-Me) = Cc1ccccc1C[C@H](N)C(=O)O; tBuAla = CC(C)(C)C[C@H](N)C(=O)O; 4Pal = N[C@@H](Cc1ccncc1)C(=O)O
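Also: Bio-layer interferometry in 50 mM HEPES pH 7.5 with 150 mM NaCl and 0.1% Tween, double-referenced with blank wells and unrelated-protein sensors, equilibrium response fitted versus concentration.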

The target in one assay is TREM2 extracellular domain (ECD) (residues 19-131, C-terminally biotinylated, deglycosylated or glycosylated) (Homo sapiens, UniProt Q9NZC2). Description: biochemical. The following applies: Human BLI (Kd; nM) (deglycosylated), Table 4B; deglycosylated human TREM2 ECD; steady-state KD, 25° C.
Sequence of TREM2 extracellular domain (ECD) (residues 19-131, C-terminally biotinylated, deglycosylated or glycosylated) (Q9NZC2 19-131): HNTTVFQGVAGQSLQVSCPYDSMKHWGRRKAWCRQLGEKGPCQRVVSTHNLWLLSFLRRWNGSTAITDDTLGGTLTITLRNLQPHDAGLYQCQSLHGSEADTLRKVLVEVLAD
Protocol: Bio-layer interferometry was performed on an Octet RED384® system (Sartorius) at 25° C. in a buffer containing 50 mM HEPES (pH 7.5), 150 mM NaCl and 0.1% Tween. TREM2 extracellular domain (ECD) (residues 19-131, C-terminally biotinylated, deglycosylated or glycosylated) was loaded onto Superstreptavidin biosensors (SSA, 18-5070, Sartorius) at 0.0125 mg/ml for 300 s. Bicycle peptides (10 mM in DMSO) were dispensed into 384-Well Tilted-Bottom Plates (18-5076, Sartorius) using an Echo liquid handler giving a final DMSO concentration of 0.125% in all wells including control wells. Association of defined concentrations of bicyclic peptide (0-12.5 μM, 1:2 dilutions for 7 points) was recorded over 120 s followed by dissociation in buffer over 120 s. Reference wells containing no bicycle peptides and reference sensors loaded with an unrelated protein (His-tagged MLLT3a) were subjected to the same assay protocol and double reference subtraction was used for processing to account for non-specific binding. Traces were analysed using Octet Software (Version 11.0). Association and dissociation curves were globally fit and the response at equilibrium (Req) plotted against concentration to obtain steady-state KD values.
The molecule `CC(=O)N[C@H]1CSCCC(=O)N2CN3CN(C2)C(=O)CCSC[C@H](NC(=O)[C@H](Cc2ccc(O)cc2)NC(=O)[C@H](CCC(=O)O)NC(=O)[C@H](CO)NC1=O)C(=O)N[C@@H](Cc1ccccc1F)C(=O)N[C@@H](Cc1c[nH]c2ccccc12)C(=O)N1CCC[C@H]1C(=O)N[C@@H](Cc1ccccc1)C(=O)N[C@@H](Cc1ccc(O)cc1)C(=O)N[C@@H](Cc1c[nH]cn1)C(=O)N[C@H](C(N)=O)CSCCC3=O` [BCY20051, Ac-(SEQ ID NO: 51)] registered a Kd of 2030 nM.

`CC(=O)N[C@H]1CSCCC(=O)N2CN3CN(C2)C(=O)CCSC[C@H](NC(=O)[C@H](Cc2ccc(O)cc2)NC(=O)[C@H](CCC(=O)O)NC(=O)[C@H](CO)NC1=O)C(=O)N[C@@H](Cc1cccc2ccccc12)C(=O)N[C@@H](Cc1c[nH]c2ccccc12)C(=O)N1CCC[C@H]1C(=O)N[C@@H](Cc1ccccc1)C(=O)N[C@@H](Cc1ccc(O)cc1)C(=O)N[C@@H](Cc1c[nH]cn1)C(=O)N[C@H](C(N)=O)CSCCC3=O` [BCY20054, Ac-(SEQ ID NO: 49)] (Ac-CSEYC[1Nal]WPFYHC-NH2; linker 1-5-12 via TATA): binding was characterised by a dissociation constant (Kd) of 2540 nM.

Molecule `CC(=O)N[C@H]1CSCCC(=O)N2CN3CN(C2)C(=O)CCSC[C@H](NC(=O)[C@H](Cc2ccc(O)cc2)NC(=O)[C@H](CCC(=O)O)NC(=O)[C@H](CO)NC1=O)C(=O)N[C@@H](Cc1ccccc1)C(=O)N[C@@H](Cc1ccccc1C)C(=O)N1CCC[C@H]1C(=O)N[C@@H](Cc1ccccc1)C(=O)N[C@@H](Cc1ccc(O)cc1)C(=O)N[C@@H](Cc1c[nH]cn1)C(=O)N[C@H](C(N)=O)CSCCC3=O` [BCY20063, Ac-(SEQ ID NO: 61)] (Ac-CSEYCF[Phe(2-Me)]PFYHC-NH2; linker 1-5-12 via TATA) returned a Kd of 1300 nM.

In the case of `CC(=O)N[C@H]1CSCCC(=O)N2CN3CN(C2)C(=O)CCSC[C@H](NC(=O)[C@H](Cc2ccc(O)cc2)NC(=O)[C@H](CCC(=O)O)NC(=O)[C@H](CO)NC1=O)C(=O)N[C@@H](Cc1ccccc1)C(=O)N[C@@H](Cc1c[nH]c2ccccc12)C(=O)N1CC[C@H]1C(=O)N[C@@H](Cc1ccccc1)C(=O)N[C@@H](Cc1ccc(O)cc1)C(=O)N[C@@H](Cc1c[nH]cn1)C(=O)N[C@H](C(N)=O)CSCCC3=O` [BCY20068, Ac-(SEQ ID NO: 64)], the Kd was 2540 nM.

`CC(=O)N[C@H]1CSCCC(=O)N2CN3CN(C2)C(=O)CCSC[C@H](NC(=O)[C@H](Cc2ccc(O)cc2)NC(=O)[C@H](CCC(=O)O)NC(=O)[C@H](CO)NC1=O)C(=O)N[C@@H](Cc1ccccc1)C(=O)N[C@@H](Cc1c[nH]c2ccccc12)C(=O)N1CCCC[C@H]1C(=O)N[C@@H](Cc1ccccc1)C(=O)N[C@@H](Cc1ccc(O)cc1)C(=O)N[C@@H](Cc1c[nH]cn1)C(=O)N[C@H](C(N)=O)CSCCC3=O` [BCY20069, Ac-(SEQ ID NO: 62)] had a Kd of 1460 nM.

Regarding `CC(=O)N[C@H]1CSCCC(=O)N2CN3CN(C2)C(=O)CCSC[C@H](NC(=O)[C@H](Cc2ccc(O)cc2)NC(=O)[C@H](CCC(=O)O)NC(=O)[C@H](CO)NC1=O)C(=O)N[C@@H](Cc1ccccc1)C(=O)N[C@@H](Cc1c[nH]c2ccccc12)C(=O)N1CCC[C@H]1C(=O)N[C@@H](Cc1ccc(-c2ccccc2)cc1)C(=O)N[C@@H](Cc1ccc(O)cc1)C(=O)N[C@@H](Cc1c[nH]cn1)C(=O)N[C@H](C(N)=O)CSCCC3=O` [BCY20075, Ac-(SEQ ID NO: 71)] (Ac-CSEYCFWP[Bip]YHC-NH2; linker 1-5-12 via TATA), the Kd turned out to be 2400 nM.

`CC(=O)N[C@H]1CSCCC(=O)N2CN3CN(C2)C(=O)CCSC[C@H](NC(=O)[C@H](Cc2ccc(O)cc2)NC(=O)[C@H](CCC(=O)O)NC(=O)[C@H](CO)NC1=O)C(=O)N[C@@H](Cc1ccccc1)C(=O)N[C@@H](Cc1c[nH]c2ccccc12)C(=O)N1CCC[C@H]1C(=O)N[C@@H](Cc1ccccc1)C(=O)N[C@@H](Cc1ccc(O)cc1)C(=O)N[C@@H](CC(N)=O)C(=O)N[C@H](C(N)=O)CSCCC3=O` [BCY20083, Ac-(SEQ ID NO: 78)] (Ac-CSEYCFWPFYNC-NH2; linker 1-5-12 via TATA): the affinity, expressed as Kd, was 1830 nM.

On to `CC(=O)N[C@H]1CSCCC(=O)N2CN3CN(C2)C(=O)CCSC[C@H](NC(=O)[C@H](Cc2ccc(O)cc2)NC(=O)[C@H](CCC(=O)O)NC(=O)[C@@H](C)NC1=O)C(=O)N[C@@H](Cc1ccccc1)C(=O)N[C@@H](Cc1c[nH]c2ccccc12)C(=O)N1CCC[C@H]1C(=O)N[C@@H](Cc1ccccc1)C(=O)N[C@@H](Cc1ccc(O)cc1)C(=O)N[C@@H](Cc1c[nH]cn1)C(=O)N[C@H](C(N)=O)CSCCC3=O` [BCY20086, Ac-(SEQ ID NO: 79)], for which the Kd amounted to 17900 nM.

The molecule `CC(=O)N[C@H]1CSCCC(=O)N2CN3CN(C2)C(=O)CCSC[C@H](NC(=O)[C@H](Cc2ccc(O)cc2)NC(=O)[C@@H](C)NC(=O)[C@H](CO)NC1=O)C(=O)N[C@@H](Cc1ccccc1)C(=O)N[C@@H](Cc1c[nH]c2ccccc12)C(=O)N1CCC[C@H]1C(=O)N[C@@H](Cc1ccccc1)C(=O)N[C@@H](Cc1ccc(O)cc1)C(=O)N[C@@H](Cc1c[nH]cn1)C(=O)N[C@H](C(N)=O)CSCCC3=O` [BCY20087, Ac-(SEQ ID NO: 80)] displayed a dissociation constant (Kd) of 18000 nM.

Consider `CC(=O)N[C@H]1CSCCC(=O)N2CN3CN(C2)C(=O)CCSC[C@H](NC(=O)[C@H](Cc2ccc(O)cc2)NC(=O)[C@H](CCC(=O)O)NC(=O)[C@H](CO)NC1=O)C(=O)N[C@@H](Cc1ccccc1)C(=O)N[C@@H](Cc1c[nH]c2ccccc12)C(=O)N1CCC[C@H]1C(=O)N[C@@H](Cc1ccccc1)C(=O)N[C@@H](CCC(N)=O)C(=O)N[C@@H](Cc1ccc(O)cc1)C(=O)N[C@H](C(N)=O)CSCCC3=O` [BCY20220, Ac-(SEQ ID NO: 23)] (Ac-CSEYCFWPFQYC-NH2; linker 1-5-12 via TATA), for which the Kd worked out at 1300 nM.

`CC(=O)N[C@H]1CSCCC(=O)N2CN3CN(C2)C(=O)CCSC[C@H](NC(=O)[C@H](Cc2ccc(O)cc2)NC(=O)[C@H](CCC(=O)O)NC(=O)[C@H](CO)NC1=O)C(=O)N[C@@H](Cc1ccccc1)C(=O)N[C@@H](Cc1c[nH]c2ccccc12)C(=O)N1CCC[C@H]1C(=O)N[C@@H](Cc1ccncc1)C(=O)N[C@@H](Cc1ccc(O)cc1)C(=O)N[C@@H](Cc1c[nH]cn1)C(=O)N[C@H](C(N)=O)CSCCC3=O` [BCY20569, Ac-(SEQ ID NO: 95)] (Ac-CSEYCFWP[4Pal]YHC-NH2; linker 1-5-12 via TATA) came in with a Kd of 3800 nM.

In the case of `CC(=O)N[C@H]1CSCCC(=O)N2CN3CN(C2)C(=O)CCSC[C@H](NC(=O)[C@H](Cc2ccc(O)cc2)NC(=O)[C@H](CCC(=O)O)NC(=O)[C@H](CO)NC1=O)C(=O)N[C@@H](Cc1ccccc1)C(=O)N[C@@H](Cc1c[nH]c2ccccc12)C(=O)N1CCC[C@H]1C(=O)N[C@@H](Cc1ccccc1)C(=O)N[C@@H](Cc1ccc(O)cc1)C(=O)N[C@@H](CCC(N)=O)C(=O)N[C@H](C(N)=O)CSCCC3=O` [BCY20572, Ac-(SEQ ID NO: 98)] (Ac-CSEYCFWPFYQC-NH2; linker 1-5-12 via TATA), the Kd stood at 1060 nM.

Turning to `CC(=O)N[C@H]1CSCCC(=O)N2CN3CN(C2)C(=O)CCSC[C@H](NC(=O)[C@H](Cc2ccc(O)cc2)NC(=O)[C@H](CCC(=O)O)NC(=O)[C@H](CO)NC1=O)C(=O)N[C@@H](Cc1ccccc1)C(=O)N[C@@H](Cc1c[nH]c2ccccc12)C(=O)N1CCC[C@H]1C(=O)N[C@@H](Cc1ccccc1)C(=O)N[C@@H](Cc1ccc(O)cc1)C(=O)N[C@@H](Cc1ccccc1)C(=O)N[C@H](C(N)=O)CSCCC3=O` [BCY20576, Ac-(SEQ ID NO: 102)] (Ac-CSEYCFWPFYFC-NH2; linker 1-5-12 via TATA), the dissociation constant Kd amounted to 1350 nM.

The same assay, now with this note: Human BLI (Kd; nM) glycosylated, Table 4B; glycosylated human TREM2 ECD.
For the molecule `CC(=O)N[C@H]1CSCCC(=O)N2CN3CN(C2)C(=O)CCSC[C@H](NC(=O)[C@H](Cc2ccc(O)cc2)NC(=O)[C@H](CCC(=O)O)NC(=O)[C@H](CO)NC1=O)C(=O)N[C@@H](Cc1cccc2ccccc12)C(=O)N[C@@H](Cc1c[nH]c2ccccc12)C(=O)N1CCC[C@H]1C(=O)N[C@@H](Cc1ccccc1)C(=O)N[C@@H](Cc1ccc(O)cc1)C(=O)N[C@@H](Cc1c[nH]cn1)C(=O)N[C@H](C(N)=O)CSCCC3=O` [BCY20054, Ac-(SEQ ID NO: 49)] (Ac-CSEYC[1Nal]WPFYHC-NH2; linker 1-5-12 via TATA), binding was put at a Kd of 1830 nM.

`CC(=O)N[C@H]1CSCCC(=O)N2CN3CN(C2)C(=O)CCSC[C@H](NC(=O)[C@H](Cc2ccc(O)cc2)NC(=O)[C@H](CCC(=O)O)NC(=O)[C@H](CO)NC1=O)C(=O)N[C@@H](Cc1ccccc1)C(=O)N[C@@H](Cc1c[nH]c2ccccc12)C(=O)N1CCC[C@H]1C(=O)N[C@@H](CC(C)(C)C)C(=O)N[C@@H](Cc1ccc(O)cc1)C(=O)N[C@@H](Cc1c[nH]cn1)C(=O)N[C@H](C(N)=O)CSCCC3=O` [BCY20074, Ac-(SEQ ID NO: 68)] (Ac-CSEYCFWP[tBuAla]YHC-NH2; linker 1-5-12 via TATA) yielded a dissociation constant (Kd) of 920 nM.

Turning to `CC(=O)N[C@H]1CSCCC(=O)N2CN3CN(C2)C(=O)CCSC[C@H](NC(=O)[C@H](Cc2ccc(O)cc2)NC(=O)[C@H](CCC(=O)O)NC(=O)[C@H](CO)NC1=O)C(=O)N[C@@H](Cc1ccccc1)C(=O)N[C@@H](Cc1c[nH]c2ccccc12)C(=O)N1CCC[C@H]1C(=O)N[C@@H](Cc1ccccc1)C(=O)N[C@@H](Cc1c[nH]c2ccccc12)C(=O)N[C@@H](Cc1c[nH]cn1)C(=O)N[C@H](C(N)=O)CSCCC3=O` [BCY20077, Ac-(SEQ ID NO: 73)] (Ac-CSEYCFWPFWHC-NH2; linker 1-5-12 via TATA), binding was characterised by a dissociation constant (Kd) of 750 nM.

The Kd is the equilibrium constant for the complex coming apart. A high value points to a looser complex.
